Laboratory results reported in patent publication US20050215548A1 (Cyclacel Limited, priority 2002, published 2005).

Target: T1, HDM2 (Homo sapiens, UniProt Q00987)
T1 construct: Recombinant HDM2 (1.5 μg per well) in TBS-BSA buffer
Assay: Fluorescence polarisation competitive HDM2 binding assay
Settings: fluorescence polarisation format; Table 1; read-out: IC50 In vitro competitive HDM2 binding assay
Procedure: This was carried out using a 96-well microtiter plate (Costar) format. Recombinant HDM2 (1.5 μg per well) in TBS-BSA buffer (50 mM Tris pH 7.4, 150 mM NaCl, and 0.1% BSA) was incubated for 5 min at room temperature in the presence of serially diluted test compound (in TBS-BSA buffer with a final concentration of 5% DMSO). Fluorescently labelled p53-derived peptide (fluorescein-[…]NH2, 0.2 μM) was added to each well and the plate was incubated at room temperature for 45 min. The fluorescence polarisation (excitation 485 nm, emission 520 nm) of the peptide was measured. IC50 values were calculated from dose-response curves.
The fluorescence polarisation competitive HDM2 binding assay described in Example 3 was used. Furthermore, the anti-proliferative potency of the compounds against three human tumour cell lines with different genetic make-up was also determined. […] The cell lines used were as follows: AGS, gastric adenocarcinoma, wild-type p53; H1299, large cell lung carcinoma, p53 null, low HDM2; SJSA-1, primitive multipotential bone sarcoma, wild-type p53, overexpressed HDM2.

T1 sequence (Q00987 whole entry): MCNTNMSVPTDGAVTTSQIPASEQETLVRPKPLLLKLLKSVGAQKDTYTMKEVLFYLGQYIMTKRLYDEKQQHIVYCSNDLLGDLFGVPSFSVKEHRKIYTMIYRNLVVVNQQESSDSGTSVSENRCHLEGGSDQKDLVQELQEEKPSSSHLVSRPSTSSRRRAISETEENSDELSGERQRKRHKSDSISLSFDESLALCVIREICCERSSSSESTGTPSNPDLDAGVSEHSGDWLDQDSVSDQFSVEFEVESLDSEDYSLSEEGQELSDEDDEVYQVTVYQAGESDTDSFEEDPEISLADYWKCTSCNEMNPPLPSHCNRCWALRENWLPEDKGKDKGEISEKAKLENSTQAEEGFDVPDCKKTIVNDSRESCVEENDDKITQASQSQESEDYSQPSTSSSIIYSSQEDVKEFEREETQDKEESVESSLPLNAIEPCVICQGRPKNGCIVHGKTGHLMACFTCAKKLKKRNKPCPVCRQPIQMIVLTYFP

Row | Compound | IC50 [µM]
1 | O=[N+]([O-])c1cc(S(=O)(=O)Nc2cccc(C(F)(F)F)c2)sc1Cl [Compound 1, 5-Chloro-4-nitrothiophene-2-sulfonic acid (3-trifluoromethylphenyl)amide] | 409 ± 84
2 | O=S(=O)(Nc1cc(C(F)(F)F)cc(C(F)(F)F)c1)c1cc(Br)c(Br)s1 [Compound 8, 4,5-Dibromothiophene-2-sulfonic acid (3,5-bis-trifluoromethylphenyl)amide] | 407
3 | O=S(=O)(Nc1ccc(C(F)(F)F)cc1)c1ccc(Cl)s1 [Compound 9, 5-Chlorothiophene-2-sulfonic acid (4-trifluoromethylphenyl)amide] | 102 ± 13
4 | O=S(=O)(Nc1ccc(Cl)cc1)c1ccc(Cl)s1 [Compound 10, 5-Chlorothiophene-2-sulfonic acid (4-chlorophenyl)amide] | 320
5 | O=S(=O)(Nc1cc(C(F)(F)F)cc(C(F)(F)F)c1)c1ccc(Cl)s1 [Compound 11, 5-Chlorothiophene-2-sulfonic acid (3,5-bis-trifluoromethylphenyl)amide] | 435 ± 76
6 | CSc1ncc(-c2ccc(S(=O)(=O)Nc3cc(Cl)cc(Cl)c3)s2)cn1 [Compound 12, 5-(2-Methylsulfanyl-pyrimidin-5-yl)-thiophene-2-sulfonic acid (3,5-dichlorophenyl)-amide] | 374 ± 12
7 | O=S(=O)(Nc1ccc(C(F)(F)F)cc1)c1ccc(-c2ncco2)cc1 [Compound 13, 4-Oxazol-2-yl-N-(4-trifluoromethylphenyl)benzenesulfonamide] | 494
8 | O=S(=O)(Nc1cc(C(F)(F)F)cc(C(F)(F)F)c1)c1ccc(-c2ncco2)cc1 [Compound 14, N-(3,5-Bis-trifluoromethylphenyl)-4-oxazol-2-yl-benzenesulfonamide] | 448 ± 55
9 | O=S(=O)(Nc1ccc(C(F)(F)F)cc1)c1cc(Br)c(Cl)s1 [Compound 15, 4-Bromo-5-chlorothiophene-2-sulfonic acid (4-trifluoromethylphenyl)amide] | 218 ± 15
10 | O=S(=O)(Nc1ccc(Cl)cc1)c1ccc(Br)s1 [Compound 16, 5-Bromothiophene-2-sulfonic acid (4-chlorophenyl)amide] | 290 ± 54
11 | O=S(=O)(Nc1cc(Cl)cc(Cl)c1)c1ccc(Br)s1 [Compound 17, 5-Bromothiophene-2-sulfonic acid (3,5-dichlorophenyl)amide] | 291
12 | O=S(=O)(Nc1cc(C(F)(F)F)cc(C(F)(F)F)c1)c1ccc(Br)s1 [Compound 18, 5-Bromothiophene-2-sulfonic acid (3,5-bis-trifluoromethylphenyl)amide] | 172 ± 21
13 | O=[N+]([O-])c1cccc(S(=O)(=O)Nc2ccc(Cl)cc2)c1 [Compound 19, N-(4-Chlorophenyl)-3-nitrobenzenesulfonamide] | 295 ± 45
14 | O=[N+]([O-])c1cccc(S(=O)(=O)Nc2ccc(C(F)(F)F)cc2)c1 [Compound 20, 3-Nitro-N-(4-trifluoromethylphenyl)benzenesulfonamide] | 482 ± 26
15 | O=[N+]([O-])c1cccc(S(=O)(=O)Nc2cc(C(F)(F)F)cc(C(F)(F)F)c2)c1 [Compound 21, N-(3,5-Bis-trifluoromethylphenyl)-3-nitrobenzenesulfonamide] | 209 ± 38
16 | O=[N+]([O-])c1cccc(S(=O)(=O)Nc2ccc(Cl)cc2Cl)c1 [Compound 22, N-(2,4-Dichlorophenyl)-3-nitrobenzenesulfonamide] | 441 ± 69
17 | O=S(=O)(Nc1ccc(C(F)(F)F)cc1)c1ccc(S(=O)(=O)c2ccccc2)s1 [Compound 23, 5-Benzenesulfonylthiophene-2-sulfonic acid (4-trifluoromethylphenyl)-amide] | 146 ± 5
18 | O=S(=O)(Nc1ccc(Cl)cc1)c1ccc(S(=O)(=O)c2ccccc2)s1 [Compound 24, 5-Benzenesulfonylthiophene-2-sulfonic acid (4-chlorophenyl)amide] | 243 ± 59
19 | O=S(=O)(Nc1cc(Cl)cc(Cl)c1)c1ccc(S(=O)(=O)c2ccccc2)s1 [Compound 25, 5-Benzenesulfonylthiophene-2-sulfonic acid (3,5-dichlorophenyl)amide] | 288 ± 39

The remaining lines, values ahead:

Row | IC50 [µM] | Compound
20 | 295 ± 36 | O=S(=O)(Nc1ccc(Cl)c(Cl)c1)c1ccc(Cl)s1 [Compound 26, 5-Chlorothiophene-2-sulfonic acid (3,4-dichlorophenyl)amide]
21 | 199 ± 28 | O=S(=O)(Nc1cccc(C(F)(F)F)c1)c1cc(Br)c(Br)s1 [Compound 27, 4,5-Dibromothiophene-2-sulfonic acid (3-trifluoromethylphenyl)amide]
22 | 160 ± 31 | O=S(=O)(Nc1ccc(Cl)c(Cl)c1)c1cc(Br)c(Br)s1 [Compound 28, 4,5-Dibromothiophene-2-sulfonic acid (3,4-dichlorophenyl)amide]
23 | 129 ± 22 | O=[N+]([O-])c1cc(S(=O)(=O)Nc2cc(C(F)(F)F)cc(C(F)(F)F)c2)ccc1Cl [Compound 29, N-(3,5-Bis-trifluoromethylphenyl)-4-chloro-3-nitrobenzenesulfonamide]
24 | 427 ± 3 | O=[N+]([O-])c1cc(S(=O)(=O)Nc2ccc(Cl)c(Cl)c2)ccc1Cl [Compound 30, 4-Chloro-N-(3,4-dichlorophenyl)-3-nitrobenzenesulfonamide]
25 | 350 ± 10 | Cn1ncc(-c2ccc(S(=O)(=O)Nc3ccc(C(F)(F)F)cc3)s2)c1C(F)(F)F [Compound 31, 5-(1-Methyl-5-trifluoromethyl-1H-pyrazol-4-yl)-thiophene-2-sulfonic acid (4-trifluoromethylphenyl)-amide]
26 | 408 ± 31 | O=S(=O)(Nc1ccc(F)cc1)c1cc(S(=O)(=O)Nc2ccc(F)cc2)c(Cl)s1 [Compound 32, 5-Chlorothiophene-2,4-disulfonic acid bis-[(4-fluorophenyl)-amide]]
27 | 295 ± 23 | Cc1ccc(S(=O)(=O)Nc2ccc(C(F)(F)F)cc2)cc1[N+](=O)[O-] [Compound 34, 4-Methyl-3-nitro-N-(4-trifluoromethylphenyl)benzenesulfonamide]
28 | 429 | Cc1ccc(S(=O)(=O)Nc2ccc(C(F)(F)F)cc2)cc1N [Compound 36, 3-Amino-4-methyl-N-(4-trifluoromethyl-phenyl)benzenesulfonamide]
29 | 294 ± 52 | Cc1ccc(S(=O)(=O)Nc2ccc(Cl)cc2)cc1[N+](=O)[O-] [Compound 37, N-(4-Chlorophenyl)-4-methyl-3-nitrobenzenesulfonamide]
30 | 249 ± 30 | CC(C)CN(c1ccc(Cl)cc1)S(=O)(=O)c1cc([N+](=O)[O-])c(Cl)s1 [Compound 58, 5-Chloro-4-nitro-thiophene-2-sulfonic acid (4-chloro-phenyl)-isobutyl-amide]
31 | 40 ± 1 | O=[N+]([O-])c1cc(S(=O)(=O)Nc2nc3ccccc3[nH]2)sc1Cl [Compound 59, 5-Chloro-4-nitro-thiophene-2-sulfonic acid (1H-benzo-imidazol-2-yl)-amide]
32 | 67 ± 1 | O=[N+]([O-])c1cc(S(=O)(=O)Nc2ccccc2)sc1Cl [Compound 62, 5-Chloro-4-nitro-thiophene-2-sulfonic acid phenylamide]
33 | 135 ± 19 | O=S(=O)(Nc1ccc(Cl)cc1)c1cc(S(=O)(=O)Nc2ccc(Cl)cc2)c(Cl)s1 [Compound 70, 5-Chloro-thiophene-2,4-disulfonic acid bis-[(4-chloro-phenyl)-amide]]
34 | 237 ± 35 | CCc1sc(S(=O)(=O)Nc2ccc(Cl)cc2)cc1[N+](=O)[O-] [Compound 71, 5-Ethyl-4-nitro-thiophene-2-sulfonic acid (4-chloro-phenyl)-amide]
35 | 123 ± 15 | Cc1sc(S(=O)(=O)Nc2ccc(Cl)cc2)cc1S(=O)(=O)Nc1ccc(Cl)cc1 [Compound 74, 5-Methyl-thiophene-2,4-disulfonic acid bis-[(4-chloro-phenyl)-amide]]
36 | 366 ± 7 | O=[N+]([O-])c1csc(S(=O)(=O)Nc2ccc(C(F)(F)F)cc2)c1 [Compound 76, 4-Nitro-thiophene-2-sulfonic acid (4-trifluoromethyl-phenyl)-amide]
37 | 247 ± 61 | O=[N+]([O-])c1csc(S(=O)(=O)NCCc2c[nH]c3ccccc23)c1 [Compound 77, 4-Nitro-thiophene-2-sulfonic acid [2-(1H-indol-3-yl)-ethyl]-amide]
38 | 315 ± 83 | Cn1nc(-c2ccc(S(=O)(=O)N(Cc3cccc(C(F)(F)F)c3)c3cc(C(F)(F)F)cc(C(F)(F)F)c3)s2)cc1C(F)(F)F [Compound 78, 5-(1-Methyl-5-tri-fluoromethyl-1H-pyrazol-3-yl)-thiophene-2-sulfonic acid (3,5-bis-tri-fluoromethyl-phenyl)-(3-trifluoro-methyl-benzyl)-amide]
39 | 419 ± 31 | O=[N+]([O-])c1cc(S(=O)(=O)Nc2ccc(Cl)cc2)sc1N1CCOCC1 [Compound 79, 5-Morpholin-4-yl-4-nitro-thiophene-2-sulfonic acid (4-chloro-phenyl)-amide]
40 | 154 ± 27 | COCCNc1sc(S(=O)(=O)Nc2ccc(Cl)cc2)cc1[N+](=O)[O-] [Compound 80, 5-(2-Methoxy-ethylamino)-4-nitro-thiophene-2-sulfonic acid (4-chloro-phenyl)-amide]
41 | 308 ± 17 | O=S(=O)(Nc1cc(C(F)(F)F)cc(C(F)(F)F)c1)c1c(Cl)nc2sccn12 [Compound 84, 6-Chloro-imidazo[2,1-b]thiazole-5-sulfonic acid (3,5-bis-trifluoro-methyl-phenyl)-amide]
42 | 432 ± 7 | O=S(=O)(Nc1ccc(Cl)cc1)c1ccc2c(c1)OCCO2 [Compound 85, 2,3-Dihydro-benzo[1,4]dioxine-6-sulfonic acid (4-chloro-phenyl)-amide]
